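Step 1: Grow cells in 96-well plates. Step 2: Expose to compound for 48 hours at 5 concentrations. Step 3: Interpolate endpoints linearly; if unreached, use highest concentration. TGI is the concentration that stops growth completely.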
Assays:
Assay in all cases: NCI anticancer screen, dose series, 48 h
[1] = system: M19-MEL melanoma
[2] = system: IGROV1 ovarian
[3] = system: NCI-H226 lung
[4] = system: UO-31 renal
[5] = system: 786-0 renal
[6] = system: SNB-78 CNS
[7] = system: HCT-15 colon
[8] = system: OVCAR-4 ovarian
[9] = system: SN12C renal
[10] = system: DMS 273 small cell lung
[11] = system: CAKI-1 renal
[12] = system: CCRF-CEM leukemia
[13] = system: RXF-631 renal
[14] = system: EKVX NSCLC
[15] = system: SR leukemia
[16] = system: TK-10 renal
[17] = system: MALME-3M melanoma
[18] = system: SNB-75 CNS
[19] = system: HOP-62 NSCLC
[20] = system: SK-MEL-28 melanoma
[21] = system: OVCAR-3 ovarian
[22] = system: RPMI-8226 leukemia
[23] = system: HT29 colon
[24] = system: ACHN renal
[25] = system: NCI-H522 lung
[26] = system: A549 NSCLC
[27] = system: SW-620 colon
[28] = system: SK-OV-3 ovarian
[29] = system: NCI-H460 lung
[30] = system: SF-268 CNS
[31] = system: LXFL 529 NSCLC
[32] = system: M14 melanoma
[33] = system: HOP-92 NSCLC
[34] = system: SNB-19 CNS
[35] = system: KM20L2 colon
[36] = system: RXF 393 renal
[37] = system: UACC-257 melanoma
[38] = system: HCC-2998 colon
[39] = system: HOP-18 NSCLC
[40] = system: K-562 leukemia
[41] = system: OVCAR-8 ovarian
[42] = system: UACC-62 melanoma
[43] = system: HCT-116 colon
[44] = system: NCI-H23 lung
[45] = system: U251 CNS
[46] = system: DLD-1 colon
[47] = system: DMS 114 small cell lung
[48] = system: SK-MEL-2 melanoma
[49] = system: MOLT-4 leukemia
[50] = system: SF-539 CNS
[51] = system: SK-MEL-5 melanoma
[52] = system: KM12 colon

## O=C1N2Cc3c4ccc5c3CN3C(=O)N6Cc7c(ccc(c7CN1C6(c1ccccc1)C23c1ccccc1)OCCOCCOc1cc(Br)c(Br)cc1OCCOCCO4)OCCOCCOc1cc(Br)c(Br)cc1OCCOCCO5 (configuration not stated)
[1]
  TGI: > 100 µM
[2]
  TGI: > 100 µM
[3]
  TGI: > 100 µM
[4]
  TGI: > 100 µM
[5]
  TGI: > 100 µM
[6]
  TGI: > 100 µM
[7]
  TGI: 67.7 µM
[8]
  TGI: > 100 µM
[9]
  TGI: > 100 µM
[10]
  TGI: > 100 µM
[11]
  TGI: > 100 µM
[12]
  TGI: > 100 µM
[13]
  TGI: > 100 µM
[14]
  TGI: > 100 µM
[15]
  TGI: > 100 µM
[16]
  TGI: > 100 µM
[17]
  TGI: > 100 µM
[18]
  TGI: > 100 µM
[19]
  TGI: > 100 µM
[20]
  TGI: > 100 µM
[21]
  TGI: > 100 µM
[22]
  TGI: > 100 µM
[23]
  TGI: > 100 µM
[24]
  TGI: > 100 µM
[25]
  TGI: > 100 µM
[26]
  TGI: > 100 µM
[27]
  TGI: 28.3 µM
[28]
  TGI: > 100 µM
[29]
  TGI: > 100 µM
[30]
  TGI: > 100 µM
[31]
  TGI: > 100 µM
[32]
  TGI: > 100 µM
[33]
  TGI: 90 µM
[34]
  TGI: > 100 µM
[35]
  TGI: > 100 µM
[36]
  TGI: > 100 µM
[37]
  TGI: > 100 µM
[38]
  TGI: > 100 µM
[39]
  TGI: > 100 µM
[40]
  TGI: > 100 µM
[41]
  TGI: > 100 µM
[42]
  TGI: > 100 µM
[43]
  TGI: > 100 µM
[44]
  TGI: > 100 µM
[45]
  TGI: > 100 µM
[46]
  TGI: 42.1 µM
[47]
  TGI: > 100 µM
[48]
  TGI: > 100 µM
[49]
  TGI: > 100 µM
[50]
  TGI: 37.9 µM
[51]
  TGI: > 100 µM
[52]
  TGI: > 100 µM

Reference: PubChem BioAssay (NCI)
